From patent US8404677B2, “Kinase inhibitors” (Genosco, priority 2009, dated 2013)

How the values were obtained:
[1] = system: MCF7; assay: cells; type: cell-based; settings: MCF7 (Breast Cancer)
[2] = system: NCI-H226; assay: cells; type: cell-based; settings: NCI-H226 (NSCLC)
[3] = system: UACC-62; assay: cells; type: cell-based; settings: UACC-62 (Melanoma)
[4] = system: COLO 205; assay: cells; type: cell-based; settings: COLO 205 (Colon Cancer)
[5] = system: HOP-62; assay: cells; type: cell-based; settings: HOP-62 (NSCLC)
[6] = system: SF-268; assay: cells; type: cell-based; settings: SF-268 (CNS Cancer)
[7] = system: TNF-α release in THP-1 cells, LPS stimulation; assay: SYK independent TNF-α release assay (LPS stimulation); type: cell-based, human
Protocol: For SYK independent TNF-α release assay (i.e., via lipopolysaccharide (LPS)-stimulation), THP-1 cells derived from human monocytic cells were obtained from the American Type Culture Collection (ATCC, Manassas, Va.). This cell line was maintained with an RPMI medium (GIBCO™) containing 10 fetal bovine serum (FBS, GIBCO™) and 0.05 mM 2-mercaptoethanol. The THP-1 cells were seeded at 1×10^5 cells/100 μL/well into 96-well culture plates, and treated with lipopolysaccharide (1 μg/ml), and serially diluted compound was then added. After an 18-hour incubation period at 37° C., supernatants were collected for the determination of the TNF-α level by ELISA, and the remaining cells were subjected to an MTT assay to determine the cytotoxic effects of compound.

[8] = system: RXF 393; assay: cells; type: cell-based; settings: RXF 393 (Renal Cancer)
[9] = system: NCI-H23; assay: cells; type: cell-based; settings: NCI-H23 (NSCLC)
[10] = system: RPMI-8226; assay: cells; type: cell-based; settings: RPMI-8226 (Leukemia)
[11] = system: SW-620; assay: cells; type: cell-based; settings: SW-620 (Colon Cancer)
[12] = system: NCI-H522; assay: cells; type: cell-based; settings: NCI-H522 (NSCLC)
[13] = system: SF-539; assay: cells; type: cell-based; settings: SF-539 (CNS Cancer)
[14] = system: PC-3; assay: cells; type: cell-based; settings: PC-3 (Prostate Cancer)
[15] = system: TK-10; assay: cells; type: cell-based; settings: TK-10 (Renal Cancer)
[16] = system: LOX IMVI; assay: cells; type: cell-based; settings: LOX IMVI (Melanoma)
[17] = Homo sapiens, read-out: LC50 (the source's name)

In the case of O=c1[nH]ccc2nc(N3CCC(O)CC3)nc(Nc3cccc(C(F)(F)F)c3)c12 [Compound 6, 2-(4-hydroxypiperidin-1-yl)-4-(3-(trifluoromethyl)phenylamino)pyrido[4,3-d]pyrimidine-5(6H)-one], the GI50 ([1]; Homo sapiens) is reported as 2.82 µM, the IC50 ([1]; Homo sapiens) is reported as 4.07 µM and the CC50 [1, 17] is reported as 100 µM. For the same compound, the TGI [1] was 12.6 µM, the GI50 ([2]; Homo sapiens) was 3.24 µM and the IC50 ([2]; Homo sapiens) was 8.32 µM. It also gave a CC50 [2, 17] of 100 µM, a TGI [2] of 17.8 µM and a GI50 ([3]; Homo sapiens) of 1.82 µM. For the same compound, the IC50 ([3]; Homo sapiens) was 3.98 µM, the CC50 [3, 17] was 27.5 µM and the TGI [3] was 6.92 µM. For the same compound, the TGI [4] was 14.5 µM, the GI50 ([4]; Homo sapiens) was 3.09 µM and the IC50 ([4]; Homo sapiens) was 5.25 µM. For the same compound, the CC50 [4, 17] was 45.7 µM, the TGI [5] was 18.6 µM and the GI50 ([5]; Homo sapiens) was 4.37 µM. The IC50 ([5]; Homo sapiens) was 8.91 µM, the CC50 [5, 17] was 79.4 µM and the GI50 ([6]; Homo sapiens) was 3.09 µM. The IC50 ([6]; Homo sapiens) was 12.9 µM, the CC50 [6, 17] was 100 µM and the TGI [6] was 35.5 µM. For the same compound, the inhibition at 0.3 µM ([7]; Homo sapiens, LPS stimulation, At 0.3 μM, THP-1, read-out: Inhibition of TNF-α Release (percentage inhibition)) was 58%, the inhibition at 1 µM ([7]; Homo sapiens, LPS stimulation, At 1 μM, THP-1, read-out: Inhibition of TNF-α Release (percentage inhibition)) was 68.9% and the “percentage inhibition of TNF-α release compared with dexamethasone” value ([7]; LPS stimulated release) was “greater than or equal to those exhibited by dexamethasone”. It also gave a GI50 ([8]; Homo sapiens) of 1.45 µM, an IC50 ([8]; Homo sapiens) of 21.4 µM and a CC50 [8, 17] of 100 µM. It also gave a TGI [8] of 23.4 µM, a GI50 ([9]; Homo sapiens) of 3.24 µM and an IC50 ([9]; Homo sapiens) of 6.92 µM. It also gave a CC50 [9, 17] of 50.1 µM, a TGI [9] of 13.8 µM and a GI50 ([10]; Homo sapiens) of 2.95 µM. The IC50 ([10]; Homo sapiens) was 5.5 µM, the CC50 [10, 17] was 100 µM and the TGI [10] was 91.2 µM. It also gave a GI50 ([11]; Homo sapiens) of 1.91 µM, an IC50 ([11]; Homo sapiens) of 2.82 µM and a CC50 [11, 17] of 74.1 µM. It also gave a TGI [11] of 12.9 µM, a GI50 ([12]; Homo sapiens) of 2.34 µM and an IC50 ([12]; Homo sapiens) of 7.59 µM. It also gave a CC50 [12, 17] of 34.7 µM, a TGI [12] of 10 µM and a GI50 ([13]; Homo sapiens) of 5.25 µM. The IC50 ([13]; Homo sapiens) was 13.5 µM, the CC50 [13, 17] was 100 µM and the TGI [13] was 38.9 µM. For the same compound, the GI50 ([14]; Homo sapiens) was 2.29 µM, the IC50 ([14]; Homo sapiens) was 4.68 µM and the CC50 [14, 17] was 93.3 µM. It also gave a TGI [14] of 12.9 µM, a GI50 ([15]; Homo sapiens) of 6.03 µM and an IC50 ([15]; Homo sapiens) of 36.3 µM. The CC50 [15, 17] was 100 µM, the TGI [15] was 44.7 µM and the GI50 ([16]; Homo sapiens) was 1.41 µM. It also gave an IC50 ([16]; Homo sapiens) of 2.63 µM, a CC50 [16, 17] of 91.2 µM and a TGI [16] of 16.6 µM.
